Reference: patent US20260216199A1, “RAF INHIBITOR AND KRAS G12C INHIBITOR COMBINATION THERAPY” (Erasca, Inc., priority 2023, published 2026)

Assays:
[1] = test system: cell lines that contain a variety of mutations that activate MAPK signaling; assay: Cell-based anti-proliferative assays; details: cell lines with mutations that activate MAPK signaling
[2] = test system: NSCLC-derived Calu-6 (KRAS Q61K); assay: In vivo KRAS-mutant tumor model Calu-6; details: Calu-6 (KRAS Q61K) model, well-tolerated doses
[3] = test system: NCI-H358 (KRAS G12C); assay: In vivo KRAS-mutant tumor model NCI-H358; details: well-tolerated doses
[4] = target: BRAF (Homo sapiens, UniProt P15056); assay: BRAF inhibition; type: biochemical
Chain of BRAF (P15056 whole entry): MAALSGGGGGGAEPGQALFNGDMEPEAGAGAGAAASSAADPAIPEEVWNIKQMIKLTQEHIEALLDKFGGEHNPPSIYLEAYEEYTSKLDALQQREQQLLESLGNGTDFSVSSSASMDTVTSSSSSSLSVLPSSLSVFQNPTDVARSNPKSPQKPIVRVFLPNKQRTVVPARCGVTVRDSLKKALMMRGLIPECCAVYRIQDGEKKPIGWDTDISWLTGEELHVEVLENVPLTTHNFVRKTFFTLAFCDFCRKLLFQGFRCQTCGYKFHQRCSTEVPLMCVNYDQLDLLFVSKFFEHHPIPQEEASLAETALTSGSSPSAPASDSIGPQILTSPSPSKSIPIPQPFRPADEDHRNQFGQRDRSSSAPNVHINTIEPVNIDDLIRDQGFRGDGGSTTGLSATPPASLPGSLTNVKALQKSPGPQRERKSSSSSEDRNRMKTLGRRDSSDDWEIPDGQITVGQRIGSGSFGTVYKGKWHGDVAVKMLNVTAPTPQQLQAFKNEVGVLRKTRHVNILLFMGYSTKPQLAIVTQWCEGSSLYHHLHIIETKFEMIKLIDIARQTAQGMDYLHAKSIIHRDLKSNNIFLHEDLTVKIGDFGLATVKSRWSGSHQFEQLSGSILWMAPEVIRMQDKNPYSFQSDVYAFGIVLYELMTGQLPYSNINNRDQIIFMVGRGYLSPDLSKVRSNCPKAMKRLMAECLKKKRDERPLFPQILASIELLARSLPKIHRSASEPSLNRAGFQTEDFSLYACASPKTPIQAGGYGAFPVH

[5] = target: CRAF (Homo sapiens, UniProt P04049); assay: CRAF inhibition; type: biochemical
Chain of CRAF (P04049 whole entry): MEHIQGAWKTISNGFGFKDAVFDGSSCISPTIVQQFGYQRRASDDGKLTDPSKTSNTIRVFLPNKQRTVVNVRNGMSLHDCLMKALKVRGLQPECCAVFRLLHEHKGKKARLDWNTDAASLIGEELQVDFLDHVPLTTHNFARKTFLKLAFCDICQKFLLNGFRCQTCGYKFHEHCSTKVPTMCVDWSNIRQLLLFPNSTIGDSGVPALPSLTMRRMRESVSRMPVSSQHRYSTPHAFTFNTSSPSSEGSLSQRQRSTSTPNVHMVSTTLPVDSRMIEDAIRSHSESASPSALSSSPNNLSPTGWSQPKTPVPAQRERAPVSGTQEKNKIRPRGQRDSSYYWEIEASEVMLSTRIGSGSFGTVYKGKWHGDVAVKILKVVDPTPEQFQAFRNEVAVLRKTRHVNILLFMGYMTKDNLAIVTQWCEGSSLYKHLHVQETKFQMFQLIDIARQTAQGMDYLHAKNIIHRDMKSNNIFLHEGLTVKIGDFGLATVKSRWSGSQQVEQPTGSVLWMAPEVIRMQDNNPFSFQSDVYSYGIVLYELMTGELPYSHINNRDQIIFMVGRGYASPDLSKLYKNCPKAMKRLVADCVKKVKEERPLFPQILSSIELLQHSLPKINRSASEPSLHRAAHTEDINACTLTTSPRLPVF

inhibition of BRAF [4]: potent inhibitors
inhibition of CRAF [5]: potent inhibitors
SMILES: Cc1ccc(NC(=O)c2ccnc(C(F)(F)F)c2)cc1-c1cc(OCCO)nc(N2CCOCC2)c1 [Compound of formula (I)]
anti-proliferative activity in cell lines [1]: anti-proliferative activity
tumor response in vivo [2]: tumor regression
tumor response in vivo [3]: tumor regression
